In patent US10494376B2, “Tetrahydroisoquinoline derived PRMT5-inhibitors” (CTXT PTY LTD, priority 2014, dated 2019):
pIC50: −log10 of the molar value. Structures can show the parent of a compound that is named as a salt.

biological target: Full-length PRMT5 enzyme (NCBI Reference sequence NP_006100.2) co-expressed with His6-MEP50 (Homo sapiens (Human), UniProt O14744); test: Revised PRMT5 Biochemical Assay; settings: 1 μM peptide substrate, 1 μM S-Adenosyl methionine, 4 hours at 37 degree Celsius, Transcreener EPIGEN fluorescence polarisation
Sequence (O14744 whole entry): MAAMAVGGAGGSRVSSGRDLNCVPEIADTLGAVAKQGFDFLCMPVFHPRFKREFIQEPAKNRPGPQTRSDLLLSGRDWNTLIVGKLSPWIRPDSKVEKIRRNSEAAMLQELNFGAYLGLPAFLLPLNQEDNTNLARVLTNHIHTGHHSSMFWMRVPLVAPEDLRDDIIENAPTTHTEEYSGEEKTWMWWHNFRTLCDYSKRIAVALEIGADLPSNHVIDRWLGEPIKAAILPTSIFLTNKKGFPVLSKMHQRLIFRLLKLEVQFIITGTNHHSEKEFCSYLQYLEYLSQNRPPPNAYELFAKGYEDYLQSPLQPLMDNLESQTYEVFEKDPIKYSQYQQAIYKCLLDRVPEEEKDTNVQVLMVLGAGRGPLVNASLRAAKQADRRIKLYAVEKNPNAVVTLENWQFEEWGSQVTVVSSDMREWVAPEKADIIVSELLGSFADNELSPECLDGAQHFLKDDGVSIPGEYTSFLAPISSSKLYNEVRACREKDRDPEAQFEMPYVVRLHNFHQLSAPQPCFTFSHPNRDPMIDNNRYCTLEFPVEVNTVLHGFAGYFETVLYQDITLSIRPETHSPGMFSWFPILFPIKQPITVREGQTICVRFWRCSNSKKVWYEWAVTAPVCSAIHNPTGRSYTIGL
Sequence (Q9BQA1 whole entry partner): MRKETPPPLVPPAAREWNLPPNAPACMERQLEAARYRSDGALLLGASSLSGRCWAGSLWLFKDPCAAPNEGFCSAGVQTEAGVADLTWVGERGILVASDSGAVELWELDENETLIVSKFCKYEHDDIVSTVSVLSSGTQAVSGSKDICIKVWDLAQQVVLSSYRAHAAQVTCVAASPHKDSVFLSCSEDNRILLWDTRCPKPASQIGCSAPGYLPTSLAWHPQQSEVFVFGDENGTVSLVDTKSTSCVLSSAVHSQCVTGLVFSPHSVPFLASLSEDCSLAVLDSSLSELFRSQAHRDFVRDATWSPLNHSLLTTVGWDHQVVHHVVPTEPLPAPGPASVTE
Method: Compounds of the invention may be tested for in vitro activity in the following assay: A histone H4 derived peptide is used as substrate (amino acid sequence: […]N H2). Full-length PRMT5 enzyme (NCBI Reference sequence NP_006100.2) was co-expressed with His6-MEP50 in insect cells and purified via Nickel immobilized metal affinity and gel filtration chromatography (“the enzyme”).
The 6 μL reactions are run in Greiner brand black 384-well low volume assay plates. All reactions contained assay buffer (phosphate buffered saline, 0.01% (v/v) Tween-20, 0.01% (w/v) albumin from chicken egg white, 1 mM Dithiothreitol, 1 μM peptide substrate, 1 μM S-Adenosyl methionine, and 15 ng/reaction enzyme, with the enzyme being omitted from negative control reactions. Compounds were added in a volume of 100 nL from dilution series prepared in DMSO, positive and negative control reactions receiving the same volume DMSO without compound. The plates were sealed with adhesive seals and incubated for 4 hours at 37 degree Celsius. Reaction progress was measured using the Transcreener™ EPIGEN methyltransferase assay (BellBrook Labs, Madison, Wis.) as recommended by the manufacturer. To each reaction 2 μL detection mix were added, containing coupling enzymes, fluorescence polarisation tracer, and AMP antibody. Plates were incubated for 90 minutes before being read on a PerkinElmer EnVision™ plate reader in fluorescence polarisation mode. IC50 values were obtained from the raw readings by calculating percent inhibition (%1) for each reaction relative to controls on the same plate (% I=(I−CN)/(CP−CN) where CN/CP are the averages of the negative/positive reactions, respectively), then fitting the %1 data vs. compound concentration [I] to % I=(A+((B−A)/(1+((C/[I])^D)))) where A is the lower asymptote, B is the upper asymptote, C is the IC50 value, and D is the slope.

pIC50	SMILES
5.06	O=C(NC[C@@H](O)[C@@H]1Cc2ccccc2CN1)c1ccncc1 [Example 77, N-((R)-2-Hydroxy-2-((S)-1,2,3,4-tetrahydroisoquinolin-3-yl)ethyl)isonicotinamide dihydrochloride]
5.26	O=C(NC[C@@H](O)[C@@H]1Cc2ccccc2CN1)c1ccc2[nH]nnc2c1 [Example 114, N-((R)-2-Hydroxy-2-((S)-1,2,3,4-tetrahydroisoquinolin-3-yl)ethyl)-1H-benzo[d][1,2,3]triazole-5-carboxamide dihydrochloride]
6.73	CC(=O)N1CCC(c2nc3cc(C(=O)NC[C@@H](O)[C@@H]4Cc5ccccc5CN4)ccc3[nH]2)CC1 [Example 88, 2-(1-Acetylpiperidin-4-yl)-N-((R)-2-hydroxy-2-((S)-1,2,3,4-tetrahydroisoquinolin-3-yl)ethyl)-1H-benzo[d]imidazole-5-carboxamide]
6.69	CCOc1cc(-c2nnc(C)o2)ccc1C(=O)NC[C@@H](O)[C@@H]1Cc2ccccc2CN1 [Example 89, 2-Ethoxy-N-((R)-2-hydroxy-2-((S)-1,2,3,4-tetrahydroisoquinolin-3-yl)ethyl)-4-(5-methyl-1,3,4-oxadiazol-2-yl)benzamide]
6.58	COC(=O)N1CCC(Oc2cc(C(=O)NC[C@@H](O)[C@@H]3Cc4ccccc4CN3)ncn2)CC1 [Example 76, Methyl 4-((6-(((R)-2-hydroxy-2-((S)-1,2,3,4-tetrahydroisoquinolin-3-yl)ethyl)carbamoyl)pyrimidin-4-yl)oxy)piperidine-1-carboxylate dihydrochloride]
6.16	CC(NC(=O)c1ccc(C(=O)N2CCOCC2)cc1)[C@@H](O)[C@@H]1Cc2ccccc2CN1 (stereo partly drawn) [Example 109, N-((1R)-1-Hydroxy-1-((S)-1,2,3,4-tetrahydroisoquinolin-3-yl)propan-2-yl)-4-(morpholine-4-carbonyl)benzamide hydrochloride]
4.29	O=C(NC[C@@H](O)[C@@H]1Cc2ccccc2CN1)c1ccccc1C(F)(F)F [Example 5, N-((R)-2-Hydroxy-2-((S)-1,2,3,4-tetrahydroisoquinolin-3-yl)ethyl)-2-(trifluoromethyl)benzamide]
4.70	COc1ccccc1C(=O)NC[C@@H](O)[C@@H]1Cc2ccccc2CN1 [Example 7, N-((R)-2-Hydroxy-2-((S)-1,2,3,4-tetrahydroisoquinolin-3-yl)ethyl)-2-methoxybenzamide]
5.64	O=C(NC[C@@H](O)[C@@H]1Cc2ccccc2CN1)c1ccc2[nH]ncc2c1 [Example 112, N-((R)-2-Hydroxy-2-((S)-1,2,3,4-tetrahydroisoquinolin-3-yl)ethyl)-1H-indazole-5-carboxamide dihydrochloride]
6.58	CC(C)Oc1cc(C(=O)NC[C@@H](O)[C@@H]2Cc3ccccc3CN2)ccn1 [Example 64, N-((R)-2-hydroxy-2-((S)-1,2,3,4-tetrahydroisoquinolin-3-yl)ethyl)-2-isopropoxyisonicotinamide]
5.64	O=C(NC[C@@H](O)[C@@H]1Cc2ccccc2CN1)c1ccnc(C2CCOCC2)c1 [Example 73, N-((R)-2-Hydroxy-2-((S)-1,2,3,4-tetrahydroisoquinolin-3-yl)ethyl)-2-(tetrahydro-2H-pyran-4-yl)isonicotinamide dihydrochloride]
6.61	O=C(NC[C@@H](O)[C@@H]1Cc2ccccc2CN1)c1ccnc(OCC(F)(F)F)c1 [Example 63, N-((R)-2-hydroxy-2-((S)-1,2,3,4-tetrahydroisoquinolin-3-yl)ethyl)-2-(2,2,2-trifluoroethoxy)isonicotinamide]
6.23	O=C(NC[C@@H](O)[C@@H]1Cc2ccccc2CN1)c1ccc(OCC(F)(F)F)nc1 [Example 57, N-((R)-2-Hydroxy-2-((S)-1,2,3,4-tetrahydroisoquinolin-3-yl)ethyl)-6-(2,2,2-trifluoroethoxy)nicotinamide]
6.48	CC(=O)N1CCN(C(=O)c2ccc(C(=O)NC[C@@H](O)[C@@H]3Cc4ccccc4CN3)cc2)CC1 [Example 66, 4-(4-Acetylpiperazine-1-carbonyl)-N-((R)-2-hydroxy-2-((S)-1,2,3,4-tetrahydroisoquinolin-3-yl)ethyl)benzamide]
5.77	CS(=O)(=O)N1CCC(NC(=O)c2ccc(C(=O)NC[C@@H](O)[C@@H]3Cc4ccccc4CN3)cc2)CC1 [Example 34, N^1-((R)-2-Hydroxy-2-((S)-1,2,3,4-tetrahydroisoquinolin-3-yl)ethyl)-N^4-(1-(methylsulfonyl)piperidin-4-yl)terephthalamide hydrochloride]
6.31	O=C(NC[C@@H](O)[C@@H]1Cc2ccccc2CN1)c1cccc2c1ncn2C1CCOCC1 [Example 117, N-((R)-2-Hydroxy-2-((S)-1,2,3,4-tetrahydroisoquinolin-3-yl)ethyl)-1-(tetrahydro-2H-pyran-4-yl)-1H-benzo[d]imidazole-4-carboxamide dihydrochloride]
6.30	COC(=O)N1CCC(Oc2cncc(C(=O)NC[C@@H](O)[C@@H]3Cc4ccccc4CN3)c2)CC1 [Example 118, Methyl 4-((5-(((R)-2-hydroxy-2-((S)-1,2,3,4-tetrahydroisoquinolin-3-yl)ethyl)carbamoyl)pyridin-3-yl)oxy)piperidine-1-carboxylate dihydrochloride]
5.65	CC(=O)N1CCC(Oc2ccccc2C(=O)NC[C@@H](O)[C@@H]2Cc3ccccc3CN2)CC1 [Example 68, 2-((1-Acetylpiperidin-4-yl)oxy)-N-((R)-2-hydroxy-2-((S)-1,2,3,4-tetrahydroisoquinolin-3-yl)ethyl)benzamide]
6.51	COC1CCN(C(=O)c2ccc(C(=O)NC[C@@H](O)[C@@H]3Cc4ccccc4CN3)cc2)CC1 [Example 92, N-((R)-2-Hydroxy-2-((S)-1,2,3,4-tetrahydroisoquinolin-3-yl)ethyl)-4-(4-methoxypiperidine-1-carbonyl)benzamide]
7.15	O=C(NC[C@@H](O)[C@@H]1Cc2ccccc2CN1)c1ccnc(OC2CCN(CC(F)(F)F)CC2)c1 [Example 124, N—((R)-2-Hydroxy-2-((S)-1,2,3,4-tetrahydroisoquinolin-3-yl)ethyl)-2-((1-(2,2,2-trifluoroethyl)piperidin-4-yl)oxy)isonicotinamide]
6.18	O=C(NC[C@@H](O)[C@@H]1Cc2ccccc2CN1)c1cccc(-c2ccnnc2)c1 [Example 12, N-((R)-2-Hydroxy-2-((S)-1,2,3,4-tetrahydroisoquinolin-3-yl)ethyl)-3-(pyridazin-4-yl)benzamide]
6.26	O=C(NC[C@@H](O)[C@@H]1Cc2ccccc2CN1)c1ccc(-c2nnc(N3CCOCC3)o2)cc1 [Example 13, N-((R)-2-Hydroxy-2-((S)-1,2,3,4-tetrahydroisoquinolin-3-yl)ethyl)-4-(5-morpholino-1,3,4-oxadiazol-2-yl)benzamide]

SMILES	pIC50
O=C(NC[C@@H](O)[C@@H]1Cc2ccccc2CN1)c1ccc(C(=O)N2C3CCC2CC3)cc1 [Example 91, 4-(7-Azabicyclo[2.2.1]heptane-7-carbonyl)-N-((R)-2-hydroxy-2-((S)-1,2,3,4-tetrahydroisoquinolin-3-yl)ethyl)benzamide]	6.91
CCOc1cc(C(=O)N2C3CCC2COC3)ccc1C(=O)NC[C@@H](O)[C@@H]1Cc2cc(C)ccc2CN1 [Example 125, 4-(3-Oxa-8-azabicyclo[3.2.1]octane-8-carbonyl)-2-ethoxy-N—((R)-2-hydroxy-2-((S)-6-methyl-1,2,3,4-tetrahydroisoquinolin-3-yl)ethyl)benzamide hydrochloride]	6.63
